In patent EP0419676B1, “THIONAPHTHALENE DERIVATIVES, METHOD OF PRODUCING THE SAME, AND ANTIALLERGIC AGENT CONTAINING THE SAME” (TEIJIN LIMITED, priority 1989, dated 1990):
Like-named read-outs stand apart in the source and are kept apart here. Values belong to the compound of their own block, whether it stands above or below them.

Columns and labels:
[1] = system: peritoneal mast cells of rat; assay: Histamine release from peritoneal mast cells induced by Compound 48/80 (non-allergic release); format: cell-based, Sprague-Dawley strain male rat; settings: for inhibition at 10 µM: Rattus norvegicus, Mast cell, 10 min, read-out: Inhibitory ratio (%) histamine release
Method: (§1) To a Sprague-Dawley strain male rat (10 weeks or older) was intraperitoneally administered, under ether anesthesia, a diluted rat anti-DNP-As IgE serum at 2 ml/kg. After 16 hours, cells were recovered by washing intraperitoneally with a Tyrode solution containing 0.5% heparin (Ca⁺⁺, Mg⁺⁺, free). Mast cells (5 x 10⁴) separated by overlying in the 30% Ficoll/Tyrode solution and centrifugation were reliberated into the Tyrode solution (Ca⁺⁺, Mg⁺⁺) and incubated with the addition of the drug solution shown in Table 3-1, for 10 minutes, and then DNP-As and phosphatidylserine were added to final concentrations of 20 µg/ml and 25 µg/ml, respectively, followed by incubation for 10 minutes. The reaction was stopped by ice-cooling, and the histamine release in the supernatant was determined by fluorophotometry. Regarding the non-allergy release, 5 x 10⁴ of mast cells were investigated by incubation with 0.5 µg/ml of Compound 48/80 for 10 minutes, after the addition of the drug solution shown in Table 3-2.

[2] = system: anti-TNP IgE antibody production; assay: IgE antibody production suppressive effect: anti-TNP IgE production by cultured spleen cells of TNP-KLH-immunized mouse; format: cell-based, BALB/C mouse
Method: An 8 weeks old BALB/C mouse (♀) was immunized by an intraperitoneal injection of 10 µg of TNP-KLH (trinitrophenyl-key hole limpet hemocyanine) and 2 mg of aluminum hydroxide gel, and after 3 weeks, 1 µg of TNP-KLH and 2 mg of aluminum hydroxide gel were boosted, and 4 weeks later, the spleen was enucleated.
The spleen cells (6 x 10⁶) were cultured together with 10 ng/ml of TNP-KLH, in the presence or non-presence of the compound of the present invention (10⁻⁵ to 10⁻⁷ M), in 1 ml of RPMI-1640 medium (containing 10% fetal bovine serum) for 2 days, followed by washing to remove the antigen and the drug, and the washed cells were resuspended in a fresh medium containing no antigen and further cultured for 5 days. All cultivations were performed under 5% CO₂ at 37°C. After completion of the culturing, the supernatant was recovered, and the concentration of anti-TNP IgE or anti-TNP IgG antibody was determined by an antigen and isotype specific immunoassay. […]
The values in the brackets ( ) indicate the values of the spontaneous IgE production amount observed when TNP-KLH was not added, and represent the IgE production dependency on the antigen.
The same experimental methods were used for the compounds shown below, and IgE antibody production suppressive effects were evaluated. […] (Exemplary compound VI - (1)): methyl (6,7-dimethoxy-2-naphthylthio)acetate (Exemplary compound V - (4)): N-(2-methoxycarbonylphenyl)-(6,7-dihydroxy-2-naphthylthio)acetamide (Exemplary compound V - (2)): N-tetrazolyl(6,7-dihydroxy-2-naphthylthio)acetamide Table 2

[3] = system: Rat homologous PCA reaction; assay: Rat homologous PCA reaction; format: in vivo, Sprague-Dawley strain male rat; settings: p.o., 1 hour before antigen
Method: The back of a Sprague-Dawley strain male rat (6 - 8 w) was depilated, and at one site on both sides thereof, 0.1 ml of a rat anti-ovalbumin IgE serum diluted with physiological saline was intradermally injected under ether anesthesia. After 48 hours, 25 mg/kg of ovalbumin, 25 mg/kg of Evans Blue were intravenously administered to induce the PCA reaction, and after 30 minutes, the skin was peeled off, dipped in a mixture of 0.3% Na₂SO₄·10H₂O/Acetate (3:7), and the dye amount infiltrated was quantitated by absorbance at 620 nm. The drug listed in Table 4 was suspended in 5% gum arabic solution and orally administered 1 hour before the antigen administration.

[4] = system: peritoneal mast cells of rat; assay: Histamine release from IgE-sensitized peritoneal mast cells, DNP-As antigen (allergic release); format: cell-based, Sprague-Dawley strain male rat
Method: as §1, with “fluorophotometry.” for “fluorophotometry. Regarding the non-allergy release, 5 x 10⁴ of mast cells were investigated by incubation with 0.5 µg/ml of Compound 48/80 for 10 minutes, after the addition of the drug solution shown in Table 3-2.”

Lipoxygenase = molecular target: T1, Lipoxygenase (Homo sapiens, UniProt P09917); assay: Lipoxygenase inhibitory activity evaluation: LTB4 and 5-HETE production in A23187-stimulated whole blood; format: cell-based, healthy man; settings: 10⁻⁵ M, A23187 25 µM; for Amount of LTB₄ produced: no addition 125; for Amount of 5-HETE produced: no addition 130
T1 construct: heparin-treated vein blood of a healthy person; from tissue; host or cells: human heparinised venous whole blood (leukocytes)
T1 sequence (P09917 1-674): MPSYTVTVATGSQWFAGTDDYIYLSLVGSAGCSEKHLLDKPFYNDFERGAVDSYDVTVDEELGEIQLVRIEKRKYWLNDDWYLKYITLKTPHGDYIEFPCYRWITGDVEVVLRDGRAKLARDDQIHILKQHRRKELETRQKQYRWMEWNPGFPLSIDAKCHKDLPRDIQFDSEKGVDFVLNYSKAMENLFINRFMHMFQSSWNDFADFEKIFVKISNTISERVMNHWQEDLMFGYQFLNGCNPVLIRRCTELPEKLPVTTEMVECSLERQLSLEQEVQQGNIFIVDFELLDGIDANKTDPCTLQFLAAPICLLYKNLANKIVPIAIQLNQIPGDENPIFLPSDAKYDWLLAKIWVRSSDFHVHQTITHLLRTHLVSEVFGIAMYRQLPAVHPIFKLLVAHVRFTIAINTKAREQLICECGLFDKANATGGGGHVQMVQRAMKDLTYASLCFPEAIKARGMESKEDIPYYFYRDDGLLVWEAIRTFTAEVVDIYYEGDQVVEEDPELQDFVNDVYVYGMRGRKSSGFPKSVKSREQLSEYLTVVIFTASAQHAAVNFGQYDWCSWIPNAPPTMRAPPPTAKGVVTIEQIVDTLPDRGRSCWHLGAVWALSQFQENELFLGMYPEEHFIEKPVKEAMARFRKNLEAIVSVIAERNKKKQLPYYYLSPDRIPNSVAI
Method: To 1 ml of heparin-treated vein blood of a healthy person without an administration of drugs was added 1 µl of a DMSO solution of the drug test sample listed in Table 5 (final 10⁻⁵ M), and after treatment at 37°C for 5 minutes, 5 µl of a DMSO solution of A23187 was added (final 25 µM) and the treatment carried out at 37°C for 15 minutes, followed by ice-cooling. After the addition of 10 µl of a DMSO solution of 100 ng of 15-HETE as the internal standard substance for quantitation, 0.8 ml of acetonitrile was added, and the precipitates formed were removed by centrifugation. Then, LTB₄ and 5-HETE in the supernatant were subjected to HPLC separation and quantitation (ref. F.J. Sweeney, et al., Prostaglandins Leukotrienes & Med., 28, 73 (1987)).

[5] = Experiment 1, 10⁻⁵ M, Compound 48/80 0.5 µg/ml
[6] = Experiment 2, 10⁻⁵ M, Compound 48/80 0.5 µg/ml

SMILES: COC(=O)c1ccccc1NC(=O)CSc1ccc2cc(O)c(O)cc2c1 [Exemplary compound V-(4), N-(2-methoxycarbonylphenyl)(6,7-dihydroxy-2-naphthylthio)acetamide]
inhibition at 10 µM [1, 5]: -0.8%
Suppressive ratio (IgE antibody production) ([2]; 10⁻⁶ M): 7%
Suppressive ratio (IgE antibody production) ([2]; 10⁻⁷ M): 26%
Suppressive ratio (%) Experiment 1 ([3]; 25 mg/kg): 0%

SMILES: O=C(CSc1ccc2cc(O)c(O)cc2c1)Nc1nnn[nH]1 [Exemplary compound V-(2), N-5-tetrazolyl(6,7-dihydroxy-2-naphthylthio)-acetamide]
inhibition at 10 µM [1, 5]: 2.2%
Suppressive ratio (IgE antibody production) ([2]; 10⁻⁷ M): 11%
Suppressive ratio (%) Experiment 1 ([3]; 25 mg/kg): -0.3%

SMILES: O=C(O)CSc1ccc2cc(O)c(O)cc2c1 [Exemplary compound IV-(2), (6,7-Dihydroxy-2-naphthylthio)acetic acid]
suppressive action against non-allergy histamine release (in words) [1]: weak suppressive actions
suppressive action against allergy histamine release (in words) [4]: suppressive actions

SMILES: O=C(CSc1ccc2cc(O)c(O)cc2c1)Nc1ccccc1-c1nnn[nH]1 [Exemplary compound V-(5), N-[2-(5-tetrazolyl)phenyl](6,7-dihydroxy-2-naphthylthio)acetamide]
inhibition at 10 µM [1, 5]: 28.1%
Suppressive ratio (%) Experiment 2 ([3]; 25 mg/kg): 16.5%

5-HETE (Inhibitory ratio %) (Lipoxygenase): 69%
LTB₄ (Inhibitory ratio %) (Lipoxygenase): 72%
Amount of LTB₄ produced (Lipoxygenase): 35 ng/ml/plasma
Amount of 5-HETE produced (Lipoxygenase): 40 ng/ml/plasma
SMILES: COC(=O)C(C)Sc1ccc2cc(O)c(O)cc2c1 (stereo not shown) [Exemplary compound VII-(1), Methyl 2-(6,7-dihydroxy-2-naphthylthio)-propionate]

SMILES: COC(=O)CSc1ccc2cc(OC(C)=O)c(OC(C)=O)cc2c1 [Exemplary compound VI-(2), Methyl (6,7-diacetoxy-2-naphthyithio)acetate]
Inhibitory ratio (%) histamine release [1, 6]: 2.6%

SMILES: COC(=O)CSc1ccc2cc(OC(=O)OC(C)C)c(OC(=O)OC(C)C)cc2c1 [Exemplary compound VI-(4), Methyl (6,7-diisopropoxycarbonyloxy-2-naphthylthio)acetate]
inhibition at 10 µM [1, 6]: 17.8%

SMILES: COc1ccc(/C=C/C(=O)Nc2ccccc2C(=O)O)cc1OC [Tranilast, reference compound]
inhibition at 10 µM [1, 5]: 24.4%
Suppressive ratio (%) Experiment 1 ([3]; 200 mg/kg): 24.2%
Suppressive ratio (%) Experiment 2 ([3]; 200 mg/kg): 26.9%

SMILES: O=C(CSc1ccc2cc(O)c(O)cc2c1)Nc1ccccc1C(=O)O [Exemplary compound V-(3), N-(2-carboxyphenyl)(6,7-dihydroxy-2-naphthylthio)acetamide]
inhibition at 10 µM [1, 5]: 1.3%
Suppressive ratio (%) Experiment 1 ([3]; 25 mg/kg): -18.0%

SMILES: COC(=O)CSc1ccc2cc(OC)c(OC)cc2c1 [Exemplary compound VI-(1), Methyl (6,7-dimethoxy-2-naphthylthio)acetate]
inhibition at 10 µM [1, 6]: 3.7%
Suppressive ratio (IgE antibody production) ([2]; 10⁻⁶ M): 69%

5-HETE (Inhibitory ratio %) (Lipoxygenase): 66%
LTB₄ (Inhibitory ratio %) (Lipoxygenase): 76%
Amount of LTB₄ produced (Lipoxygenase): 30 ng/ml/plasma
Amount of 5-HETE produced (Lipoxygenase): 45 ng/ml/plasma
SMILES: Oc1cc2ccc(SCc3ccccc3)cc2cc1O [II-(1)]

SMILES: COC(=O)CSc1ccc2cc(OC(=O)OC)c(OC(=O)OC)cc2c1 [Exemplary compound VI-(3), Methyl (6,7-dimethoxycarbonyloxy-2-naphthylthio)acetate]
inhibition at 10 µM [1, 6]: 7.5%

SMILES: O=C(CSc1ccc2cc(O)c(O)cc2c1)NCCCCN1CCN(C(c2ccc(F)cc2)c2ccc(F)cc2)CC1 [Exemplary compound V-(6), 1-[4-[(6,7-dihydroxy-2-naphthylthio)acetylamino]-butyl]-4-[bis(4-fluorophenyl)methyl]piperazine]
inhibition at 10 µM [1, 5]: 5.9%
Suppressive ratio (%) Experiment 2 ([3]; 25 mg/kg): 15.9%
